Reference: ChEMBL document CHEMBL1799910, “Optimization of 1,2,3,4-tetrahydroacridin-9(10H)-ones as antimalarials utilizing structure-activity and structure-property relationships” (J Med Chem, 2011)
pEC50: −log10 of the molar value. In brackets after ≈: the same amount, converted by molar mass.

Columns and labels:
[1] = Partition coefficient, log D of the compound at pH 7.4 by HPLC analysis; conditions: octanol/water
[2] = Stability in mouse liver microsomes; assay type: ADME, Microsome; conditions: liver microsomes
J774 = assay: Cytotoxicity against mouse J774 cells after 72 hrs by Cell titer 96 aqueous one solution cell proliferation assay; assay type: cell-based; conditions: J774, 72 h
Plasmodium falciparum [3] = assay: Antimalarial activity against chloroquine, mefloquine, pyrimethamine and atovaquone-resistant Plasmodium falciparum TM90-C2B infected in human A positive erythrocytes after 72 hrs by SYBR Green I assay; assay type: functional, organism-based
Plasmodium falciparum [4] = assay: Antimalarial activity against chloroquine and pyrimethamine-resistant Plasmodium falciparum W2 infected in human A positive erythrocytes after 72 hrs by SYBR Green I assay; assay type: functional, organism-based; conditions: W2, 72 h
Plasmodium falciparum [5] = assay: Resistance index, ratio of EC50 for chloroquine, mefloquine, pyrimethamine and atovaquone-resistant Plasmodium falciparum TM90-C2B to EC50 for chloroquine and pyrimethamine-resistant Plasmodium falciparum W2; assay type: functional
[6] = Cytotoxicity index, ratio of EC50 for mouse J774 cells to EC50 for chloroquine, mefloquine, pyrimethamine and atovaquone-resistant Plasmodium falciparum TM90-C2B; assay type: cell-based; conditions: read-out: Ratio EC50
[7] = Permeability of the compound by PAMPA method at pH 7.4; assay type: ADME; conditions: read-out: permeability
[8] = Aqueous solubility of compound at pH 7.4 by HPLC analysis; conditions: buffer

| SMILES | logD [1] | half-life [2] [min] | pEC50 (J774) | pEC50 (Plasmodium falciparum [3]) | pEC50 (Plasmodium falciparum [4]) | Ratio EC50 (Plasmodium falciparum [5]) | selectivity ratio [6] | Papp [7] [×10⁻⁶ cm/s] | solubility [8] [µM] |
| --- | --- | --- | --- | --- | --- | --- | --- | --- | --- |
| COc1cc2[nH]c3c(c(=O)c2cc1Cl)C[S+]([O-])CC3 (stereo unspecified) | 1.3 | 990 | < 4.40 | 5.87 | 5.33 | – | – | – | – |
| Cc1ccc2c(=O)c3c([nH]c2c1)CCCC3 | 2 | 20.1 | < 4.40 | 6.82 | 6.82 | 1.01 | ≥ 100 | 27 | 89 (≈ 19 µg/mL) |
| COc1ccc2c(=O)c3c([nH]c2c1)CCC(C)(C)C3 | 2.2 | 77 | < 4.40 | 6.76 | 7.27 | 3.22 | ≥ 100 | 88 | 61 (≈ 15.7 µg/mL) |
| O=c1c2c([nH]c3ccccc13)CCCC2 | 3 | 18.2 | < 4.40 | 6.49 | 6.14 | 0.45 | ≥ 100 | 10 | 24 (≈ 4.78 µg/mL) |
| O=c1c2c([nH]c3cc(-c4ccc(Oc5ccc(OC(F)(F)F)cc5)cc4)ccc13)CCCC2 | 3.8 | 173 | < 7.00 | 8.04 | 7.91 | 0.75 | ≥ 100 | 18 | 0.1 (≈ 0.0451 µg/mL) |
| COc1ccc2c(=O)c3c([nH]c2c1)CC(C)(C)CC3 | 2.2 | 24.8 | < 4.40 | 6.95 | 6.45 | 0.32 | ≥ 100 | 64 | 92 (≈ 23.7 µg/mL) |
| O=c1c2c([nH]c3cc(F)cc(F)c13)CCCC2 | 1.5 | 3.6 | < 5.70 | 7.35 | 7.78 | 2.72 | ≥ 100 | 13 | 3 (≈ 0.706 µg/mL) |
| Cc1cccc2c(=O)c3c([nH]c12)CCCC3 | 1.9 | 6.4 | < 4.40 | 6.05 | 5.66 | 0.4 | ≥ 100 | 26 | 47 (≈ 10 µg/mL) |
| COc1ccc2c(=O)c3c([nH]c2c1)CCC(F)(F)C3 | 1.6 | 15.8 | < 5.00 | 6.45 | 6.46 | 1.02 | ≥ 100 | 39 | 14 (≈ 3.71 µg/mL) |
| COc1ccc2c(=O)c3c([nH]c2c1)CCCC3 | 1.9 | 6.8 | < 4.40 | 7.00 | 7.05 | 1.11 | ≥ 100 | 25 | 82 (≈ 18.8 µg/mL) |
| O=c1c2c([nH]c3ccc(-c4ccc(C(F)(F)F)cc4)cc13)CCSC2 | 2.4 | 11.2 | < 5.00 | 6.53 | 7.00 | 2.9 | ≥ 100 | < 1 | 10 (≈ 3.61 µg/mL) |
| O=c1c2c([nH]c3cc(Cl)cc(Cl)c13)CCCC2 | 2.5 | – | < 5.30 | 7.02 | 7.06 | 1.1 | ≥ 100 | 134 | 8 (≈ 2.15 µg/mL) |
| CN(C)c1ccc(-c2ccc3c(=O)c4c([nH]c3c2)CCCC4)cc1 | 1.3 | – | < 5.00 | 6.79 | 7.00 | 1.62 | ≥ 100 | 199 | 11 (≈ 3.5 µg/mL) |
| Cc1ccc(C)c2c(=O)c3c([nH]c12)CCCC3 | 2.6 | – | < 4.70 | 5.62 | 5.51 | 0.78 | ≥ 100 | 263 | 122 (≈ 27.7 µg/mL) |
| O=c1c2c([nH]c3cc(-c4c(F)cccc4F)ccc13)CCCC2 | 3 | – | < 7.00 | 7.60 | 7.14 | 0.35 | ≥ 100 | 339 | 0.3 (≈ 0.0934 µg/mL) |
| Cc1cccc2c(=O)c3c([nH]c12)CC(C)(C)CC3 | 2.3 | – | < 4.40 | 5.76 | 5.63 | 0.74 | ≥ 100 | 88 | 60 (≈ 14.5 µg/mL) |
| Cc1cc(Oc2ccc(OC(F)(F)F)cc2)ccc1-c1ccc2[nH]c3c(c(=O)c2c1)CSCC3 | 3.6 | 15.1 | < 5.30 | 6.49 | 7.56 | 11.8 | ≥ 100 | < 1 | 7 (≈ 3.38 µg/mL) |
| COc1ccc2c(=O)c3c([nH]c2c1)CCC3 | 1.5 | – | < 4.40 | 6.21 | 5.95 | 0.54 | ≥ 100 | 11 | 91 (≈ 19.6 µg/mL) |

| SMILES | logD [1] | half-life [2] [min] | pEC50 (J774) | pEC50 (Plasmodium falciparum [3]) | pEC50 (Plasmodium falciparum [4]) | Ratio EC50 (Plasmodium falciparum [5]) | selectivity ratio [6] | Papp [7] [×10⁻⁶ cm/s] | solubility [8] [µM] |
| --- | --- | --- | --- | --- | --- | --- | --- | --- | --- |
| O=c1c2c([nH]c3cc(C(F)(F)F)ccc13)CCCCC2 | 3 | – | < 5.00 | < 5.36 | 5.31 | >0.88 | ≥ 100 | 131 | 17 (≈ 4.78 µg/mL) |
| COc1cccc2[nH]c3c(c(=O)c12)CC(C)(C)CC3 | 1.9 | – | < 4.70 | 5.46 | 5.28 | 0.67 | ≥ 100 | 54 | 83 (≈ 21.4 µg/mL) |
| O=c1c2c([nH]c3ccc(Cl)cc13)CCC(F)(F)C2 | 2 | 40.8 | < 5.70 | 6.65 | 6.83 | 1.52 | ≥ 100 | 62 | 4 (≈ 1.08 µg/mL) |
| O=c1c2c([nH]c3c(F)cccc13)CCCC2 | 1.5 | – | < 4.40 | 5.54 | 6.27 | 5.43 | ≥ 100 | 17 | 109 (≈ 23.7 µg/mL) |
| O=c1c2c([nH]c3c(F)c(F)ccc13)CCCC2 | 1.9 | – | < 4.40 | 6.42 | 5.98 | 0.36 | ≥ 100 | 38 | 93 (≈ 21.9 µg/mL) |
| O=c1c2c([nH]c3cc([N+](=O)[O-])ccc13)CCCC2 | 1.5 | – | < 5.70 | 6.02 | 5.98 | 0.91 | ≥ 100 | 63 | 3 (≈ 0.733 µg/mL) |
| COc1cc2[nH]c3c(c(=O)c2cc1Cl)CSCC3 | 1 | – | < 5.00 | 6.89 | 7.58 | 4.94 | ≥ 100 | 101 | 13 (≈ 3.66 µg/mL) |
| O=c1c2c([nH]c3cc(Cl)ccc13)CCCC2 | 2.2 | – | < 5.00 | 6.91 | 6.86 | 0.89 | ≥ 100 | 75 | 15 (≈ 3.51 µg/mL) |
| Cc1ccc2c(=O)c3c([nH]c2c1)CCC(C)(C)C3 | 2.4 | – | < 4.40 | 5.70 | 6.78 | 11.9 | ≥ 100 | 82 | 75 (≈ 18.1 µg/mL) |
| COc1cc2[nH]c3c(c(=O)c2cc1C)CSCC3 | 0.9 | – | < 5.00 | 7.01 | 6.95 | 0.86 | ≥ 100 | 68 | 14 (≈ 3.66 µg/mL) |
| Cc1cc(Cl)ccc1-c1ccc2[nH]c3c(c(=O)c2c1)CSCC3 | 2.4 | 8.4 | < 5.70 | 7.63 | 7.46 | 0.67 | ≥ 100 | < 1 | 2 (≈ 0.684 µg/mL) |
| COc1cc2[nH]c3c(c(=O)c2cc1Cl)CC(F)(F)CC3 | 2.1 | 8.5 | < 5.00 | 8.25 | 7.12 | 0.07 | ≥ 100 | 107 | 10 (≈ 3 µg/mL) |
| O=c1c2c([nH]c3c(Cl)c(Cl)ccc13)CCCC2 | 2.9 | – | < 4.70 | < 5.03 | 5.20 | >1.47 | ≥ 100 | 348 | 41 (≈ 11 µg/mL) |
| Cc1ccc2c(=O)c3c([nH]c2c1C)CCCC3 | 2.2 | – | < 5.30 | 5.64 | 5.41 | 0.58 | ≥ 100 | 42 | 8 (≈ 1.82 µg/mL) |
| Cc1ccc2[nH]c3c(c(=O)c2c1)CC(C)(C)CC3 | 2.4 | – | < 4.40 | 5.66 | 6.32 | 4.6 | ≥ 100 | 84 | 52 (≈ 12.5 µg/mL) |
| CC1(C)CCc2[nH]c3cccc(Cl)c3c(=O)c2C1 | 2.4 | – | < 4.40 | 6.22 | 6.43 | 1.61 | ≥ 100 | 117 | 23 (≈ 6.02 µg/mL) |
| COc1cc(OC)c2c(=O)c3c([nH]c2c1)CCCC3 | 1.4 | – | < 4.40 | 5.59 | < 5.14 | <0.36 | ≥ 100 | 13 | 188 (≈ 48.7 µg/mL) |
